Experiments:
[1] = Therapeutic index, ratio of LD50 for toxicity in ip dosed Kunming mouse assessed as lethal dose to ED50 for analgesic activity against acetic acid-induced Kunming writhing mouse model assessed as effective dose; format: organism-based; details: in vivo, read-out: TI
[2] = tested on: Mus musculus; test: Analgesic activity against acetic acid-induced ip dosed Kunming writhing mouse model assessed as effective dose pre-incubated for 15 mins followed by acetic acid addition and measured after 15 mins; format: functional; details: 0.25 h
[3] = tested on: Mus musculus; test: Analgesic activity against acetic acid-induced Kunming writhing mouse model assessed as inhibition of writhing at 5 mg/kg, ip pre-incubated for 15 mins followed by acetic acid addition and measured after 15 mins relative to control; format: functional; details: 0.25 h
[4] = tested on: Mus musculus; test: Analgesic activity against acetic acid-induced Kunming writhing mouse model assessed as inhibition of writhing at 1 mg/kg, ip pre-incubated for 15 mins followed by acetic acid addition and measured after 15 mins relative to control; format: functional; details: 0.25 h
[5] = tested on: Mus musculus; test: Analgesic activity against acetic acid-induced Kunming writhing mouse model assessed as inhibition of writhing at 0.2 mg/kg, ip pre-incubated for 15 mins followed by acetic acid addition and measured after 15 mins relative to control; format: functional; details: 0.25 h
[6] = Toxicity in Kunming mouse at 5 mg/kg, ip administered for 15 mins; format: organism-based; details: in vivo, 0.25 h
[7] = Toxicity in ip dosed Kunming mouse assessed as lethal dose; format: organism-based; details: in vivo

Row | Structure (SMILES) | inhibition in vivo at 5 mg/kg [3] [%] | inhibition in vivo at 1 mg/kg [4] [%] | inhibition in vivo at 0.2 mg/kg [5] [%] | also measured
1 | CC1(C)[C@@H](O)[C@H](O)[C@H]2[C@](C)(O)[C@@H]3CC[C@@H]4[C@@H](O)[C@@]3(C[C@@H](O)[C@@]21O)C[C@@]4(C)O |  |  |  | selectivity ratio [1]: 24.5; ED50 [2]: 0.073 mg/kg
2 | CC1(C)[C@@H](O)[C@H](OC(=O)c2ccco2)[C@H]2[C@](C)(O)[C@@H]3CC[C@@H]4[C@@H](O)[C@@]3(C[C@@H](O)[C@@]21O)C[C@@]4(C)O | 74.1 | 50 | 71.5 | 
3 | CC1=C2CC[C@@H]3[C@@H](O)[C@@]2(C[C@H]2O[C@@H](c4ccc(O)cc4)O[C@@]24C1[C@@H](O)[C@H](O)C4(C)C)C[C@@]3(C)O (stereo not given in full) | 74.1 | 50 |  | 
4 | CC1(C)[C@@H](O)[C@H](OC(=O)c2cccnc2)[C@H]2[C@](C)(O)[C@@H]3CC[C@@H]4[C@@H](O)[C@@]3(C[C@@H](O)[C@@]21O)C[C@@]4(C)O |  | 50 |  | Activity [6]: Toxic
5 | CC1(C)[C@@H](O)[C@H](OC(=O)[C@@]2(O)C[C@@H](O)[C@H](O)[C@H](OC(=O)/C=C/c3ccc(O)cc3)C2)[C@H]2[C@](C)(O)[C@@H]3CC[C@@H]4[C@@H](O)[C@@]3(C[C@@H](O)[C@@]21O)C[C@@]4(C)O | 74.1 | 50 | 77.2 | selectivity ratio [1]: 1770; ED50 [2]: 0.074 mg/kg; LD50 [7]: 131 mg/kg
6 | CC1(C)[C@@H](O)[C@@H]2O[C@@H]3[C@H]4CC[C@H]5[C@@](C)(O)[C@@H]6[C@@H](O[C@@H]7[C@H]8CC[C@H]9[C@@](C)(O)[C@H]2[C@]1(O)[C@H](O)C[C@@]79C[C@@]8(C)O)[C@H](O)C(C)(C)[C@@]6(O)[C@H](O)C[C@@]35C[C@@]4(C)O | 74.1 | 50 |  | 
7 | CC(=O)O[C@@H]1C[C@]23C[C@@](C)(O)[C@@H]4CC[C@H]2[C@@](C)(O)[C@@H]2[C@@H](O[C@@H]5[C@H]6CC[C@H]7[C@@](C)(O)[C@@H]8[C@@H](O[C@H]43)[C@H](O)C(C)(C)[C@@]8(O)[C@H](OC(C)=O)C[C@@]57C[C@@]6(C)O)[C@H](O)C(C)(C)[C@@]12O | 74.1 |  |  | 
8 | CC1=C2CC[C@@H]3[C@@H](O)[C@@]2(C[C@@H](O)[C@@]2(O)[C@H]1[C@@H](Cl)[C@H](O)C2(C)C)C[C@@]3(C)O |  | 50 |  | 
9 | CN1CC[C@]23c4c5ccc(O)c4O[C@H]2[C@@H](O)C=C[C@H]3[C@H]1C5 [MORPHINE] |  |  | 39.4 | 
